Like-named read-outs stand apart in the source and are kept apart here.
Columns and labels:
[1] = cited from earlier work
Cryptosporidium parvum [2] = assay: C. parvum; assay type: in vivo, mouse; settings: >2 log unit reduction in infection
Toxoplasma gondii [3] = assay: Toxoplasma gondii in vitro growth inhibition; assay type: cell-based; settings: read-out: Toxoplasma gondii EC50; 50% reduction in growth
hERG [4] = target: T1, hERG (Homo sapiens, UniProt Q12809); assay: hERG thallium flux assay
T1 sequence (Q12809 whole entry): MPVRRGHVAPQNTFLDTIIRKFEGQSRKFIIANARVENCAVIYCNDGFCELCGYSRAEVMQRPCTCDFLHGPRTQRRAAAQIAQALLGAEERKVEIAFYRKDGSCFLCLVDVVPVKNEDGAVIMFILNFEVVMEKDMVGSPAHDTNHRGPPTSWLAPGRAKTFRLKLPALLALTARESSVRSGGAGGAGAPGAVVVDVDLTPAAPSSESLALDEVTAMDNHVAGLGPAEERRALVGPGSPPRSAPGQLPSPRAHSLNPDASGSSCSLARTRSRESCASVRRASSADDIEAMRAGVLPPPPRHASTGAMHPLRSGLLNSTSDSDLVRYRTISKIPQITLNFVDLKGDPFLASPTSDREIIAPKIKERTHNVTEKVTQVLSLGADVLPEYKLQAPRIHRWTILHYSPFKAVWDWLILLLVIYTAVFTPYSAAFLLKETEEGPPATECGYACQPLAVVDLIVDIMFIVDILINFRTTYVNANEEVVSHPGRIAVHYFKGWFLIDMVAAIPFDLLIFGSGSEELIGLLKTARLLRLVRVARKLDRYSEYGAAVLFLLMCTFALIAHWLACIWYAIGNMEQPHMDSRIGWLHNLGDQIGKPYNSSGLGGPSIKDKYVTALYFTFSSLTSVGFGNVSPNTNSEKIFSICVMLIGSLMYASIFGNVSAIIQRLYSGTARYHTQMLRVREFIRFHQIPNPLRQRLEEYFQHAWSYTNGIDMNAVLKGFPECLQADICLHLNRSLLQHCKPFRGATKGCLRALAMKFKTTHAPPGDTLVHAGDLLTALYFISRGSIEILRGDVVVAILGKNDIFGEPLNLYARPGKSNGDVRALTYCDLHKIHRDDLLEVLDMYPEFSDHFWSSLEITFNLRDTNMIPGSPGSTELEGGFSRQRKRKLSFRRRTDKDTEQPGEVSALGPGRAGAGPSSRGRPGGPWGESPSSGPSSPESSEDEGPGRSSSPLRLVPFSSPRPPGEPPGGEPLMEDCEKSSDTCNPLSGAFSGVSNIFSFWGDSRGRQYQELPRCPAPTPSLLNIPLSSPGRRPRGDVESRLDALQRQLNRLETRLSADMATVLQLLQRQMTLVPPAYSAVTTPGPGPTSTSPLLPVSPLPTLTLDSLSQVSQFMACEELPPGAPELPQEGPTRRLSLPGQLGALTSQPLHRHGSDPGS

Cryptosporidium parvum [5] = settings: ref Arnold et al., cited from earlier work
Cryptosporidium parvum [6] = assay: Cryptosporidium parvum in vitro growth inhibition; assay type: cell-based; settings: read-out: Cryptosporidium parvum EC50; 50% reduction in growth
P-glycoprotein (P-gp) = settings: compared with efficacious compounds such as BKI-1369; ref Arnold et al., 2019; cited from earlier work
[7] = cited from earlier work; remark: listed apart in the source
[8] = Plasma exposure after oral dosing in mice; assay type: in vivo, mouse; settings: at the toxic dose of the same table row
TgCDPK1 = target: T2, TgCDPK1 (Toxoplasma gondii, UniProt Q9BJF5); assay type: biochemical; settings: read-out: TgCDPK1 IC50
T2 sequence (Q9BJF5 1-507): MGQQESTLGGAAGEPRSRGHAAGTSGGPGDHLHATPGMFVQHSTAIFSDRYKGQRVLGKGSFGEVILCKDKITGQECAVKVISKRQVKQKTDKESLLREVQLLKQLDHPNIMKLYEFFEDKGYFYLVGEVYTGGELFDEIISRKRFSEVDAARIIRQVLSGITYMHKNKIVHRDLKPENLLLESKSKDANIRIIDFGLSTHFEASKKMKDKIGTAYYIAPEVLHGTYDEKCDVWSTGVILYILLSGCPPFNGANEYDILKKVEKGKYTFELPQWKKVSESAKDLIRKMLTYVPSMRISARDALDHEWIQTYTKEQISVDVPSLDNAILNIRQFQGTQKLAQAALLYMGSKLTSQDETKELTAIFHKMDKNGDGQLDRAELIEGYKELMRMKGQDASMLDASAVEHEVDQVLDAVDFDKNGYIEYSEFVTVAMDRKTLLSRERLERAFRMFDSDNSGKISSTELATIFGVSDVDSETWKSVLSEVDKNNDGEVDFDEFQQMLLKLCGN

[9] = assay type: in vivo
CpCDPK1 = target: T3, CpCDPK1 (Cryptosporidium parvum, UniProt A3FQ16); assay type: biochemical; settings: read-out: CpCDPK1 IC50
T3 sequence (A3FQ16 1-538): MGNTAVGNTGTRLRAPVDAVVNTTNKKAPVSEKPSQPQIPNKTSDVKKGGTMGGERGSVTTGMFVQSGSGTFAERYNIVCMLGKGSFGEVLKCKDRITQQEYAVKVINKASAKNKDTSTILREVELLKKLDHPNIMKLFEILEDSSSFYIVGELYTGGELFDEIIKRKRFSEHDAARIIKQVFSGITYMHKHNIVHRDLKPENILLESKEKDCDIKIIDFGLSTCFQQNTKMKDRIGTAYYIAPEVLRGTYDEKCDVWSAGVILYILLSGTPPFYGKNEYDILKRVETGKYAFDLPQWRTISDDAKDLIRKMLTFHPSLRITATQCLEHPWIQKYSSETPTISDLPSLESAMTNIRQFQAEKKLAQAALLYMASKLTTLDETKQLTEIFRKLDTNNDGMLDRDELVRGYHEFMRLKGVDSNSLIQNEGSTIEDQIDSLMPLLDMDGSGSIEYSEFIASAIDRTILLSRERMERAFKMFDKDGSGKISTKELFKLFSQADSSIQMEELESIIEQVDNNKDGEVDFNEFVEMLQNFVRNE

[10] = QD in mice
[11] = Toxicity and safety in calves; assay type: in vivo, calf; settings: 3X maximal therapeutic doses; unpublished data
hERG [12] = target: T1, hERG; assay: hERG automated patch clamp; assay type: cell-based; settings: read-out: hERG Qpatch IC50
Toxoplasma gondii [13] = assay: T. gondii mouse efficacy model; assay type: in vivo; settings: QD
[14] = assay type: in vivo; settings: mouse pregnancy safety dose 50 mg/kg
Human PKD3 = target: T4, Human PKD3 (Homo sapiens, UniProt O94806); assay: Human PKD3 kinase inhibition; assay type: biochemical; settings: read-out: Human PKD3 IC50
T4 sequence (O94806 1-890): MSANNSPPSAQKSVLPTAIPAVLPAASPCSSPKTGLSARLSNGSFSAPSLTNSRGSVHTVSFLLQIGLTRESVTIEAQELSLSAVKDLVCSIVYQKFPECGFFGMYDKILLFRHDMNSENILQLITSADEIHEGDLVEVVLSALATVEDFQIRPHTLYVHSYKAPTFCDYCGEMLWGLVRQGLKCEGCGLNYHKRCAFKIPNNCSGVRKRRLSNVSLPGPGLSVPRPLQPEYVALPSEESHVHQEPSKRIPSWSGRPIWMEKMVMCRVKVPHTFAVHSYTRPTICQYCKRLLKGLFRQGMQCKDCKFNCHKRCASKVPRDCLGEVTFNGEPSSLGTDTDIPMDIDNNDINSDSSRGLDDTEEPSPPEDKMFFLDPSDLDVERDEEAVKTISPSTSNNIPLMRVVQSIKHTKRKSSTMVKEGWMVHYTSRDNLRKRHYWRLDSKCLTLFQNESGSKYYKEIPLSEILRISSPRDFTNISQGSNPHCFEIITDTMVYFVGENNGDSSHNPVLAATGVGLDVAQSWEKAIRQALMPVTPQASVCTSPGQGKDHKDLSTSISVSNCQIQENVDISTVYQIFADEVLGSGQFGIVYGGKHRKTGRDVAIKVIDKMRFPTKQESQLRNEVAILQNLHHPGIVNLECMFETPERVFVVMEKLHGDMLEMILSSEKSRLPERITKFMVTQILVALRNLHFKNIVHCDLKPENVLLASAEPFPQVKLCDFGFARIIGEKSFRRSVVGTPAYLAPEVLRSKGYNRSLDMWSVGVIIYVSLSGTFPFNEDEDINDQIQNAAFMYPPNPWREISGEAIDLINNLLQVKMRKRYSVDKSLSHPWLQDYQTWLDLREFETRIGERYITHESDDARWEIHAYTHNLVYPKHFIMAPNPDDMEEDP

[15] = mice, 30 mg/kg oral dose, ref Hulverson et al., 2017a, 30 mg/kg
[16] = mice, 30 mg/kg oral dose, ref Hulverson et al., 2017a, listed as 1369, 30 mg/kg

CCOc1ccc2cc(-c3nn(CC4CCN(C)CC4)c4ncnc(N)c34)ccc2c1 [BKI-1294]
Levels reached in tissues of the GI tract ([1]; infected mice, ref Arnold et al., 2017): reached high levels in all tissues of the GI tract
C. parvum efficacious dose in mice (Cryptosporidium parvum [2]; QD): 100 mg/kg QD
EC50 (Toxoplasma gondii [3]): 137 nM
IC50 (hERG [4]): 790 nM
hERG Thallium Flux IC50 (hERG [4]): submicromolar
Efficacy against Cryptosporidium infection in mice (Cryptosporidium parvum [5]; 2017): significantly reduced infection
EC50 (Cryptosporidium parvum [6]): 2220 nM

CCOc1ccc2cc(-c3nn(CC4CCNCC4)c4ncnc(N)c34)ccc2n1 [BKI-1318]
Efflux ratio (P-glycoprotein (P-gp)): much higher efflux ratio
Efficacy against Cryptosporidium when the P-gp pumps were inhibited (Cryptosporidium parvum [5]; P-gp pumps inhibited, 2019): greatly improved
Efficacy against Cryptosporidium (Cryptosporidium parvum [5]; 2019): failed to be efficacious

CCOc1ccc2cc(-c3nn(CC4CCN(C)CC4)c4ncnc(N)c34)ccc2n1 [BKI-1369]
Toxicity on repeated dosing ([7]; 50 mg/kg for 5 days, ref Hulverson et al., 2017a): multiple signs of toxicity
Daily dose with no signs of GI side effects ([7]; mouse, in vivo): up to 150 mg/kg
Observed maximum gastrointestinal tissue exposure after single dose, ascending colon [1, 15]: 23 µM
Observed maximum gastrointestinal tissue exposure after single dose, cecum [1, 15]: 20 µM
Observed maximum gastrointestinal tissue exposure after single dose, duodenum [1, 15]: > 76 µM
Observed maximum gastrointestinal tissue exposure after single dose, jejunum/ileum [1, 15]: 39 µM
Observed maximum gastrointestinal tissue exposure after single dose, cecum [1, 16]: 20 ± 6 µM
Observed maximum gastrointestinal tissue exposure after single dose, duodenum [1, 16]: 76 ± 41 µM
Observed maximum plasma exposure at toxic dose [8]: 8.3 ± 0.2 µM
C. parvum efficacious dose in mice (Cryptosporidium parvum [2]; QD): 30 mg/kg QD
IC50 (TgCDPK1): 6.1 nM
Dog CV safety: ↓dP/dt (plasma conc.) ([9]; anesthetized dog, decreased cardiac contractility): 9.3 µM
Dog CV safety: ↑SVR (plasma conc.) ([9]; anesthetized dog, increased systemic vascular resistance): 129 µM
Dog CV safety: complete CV collapse (plasma conc.) ([9]; dog, in vivo): > 50 µM
Dog CV safety: ↑QTcV (plasma conc.) ([9]; dog, in vivo): ~1.7 µM
Dog CV safety: ↓CO (plasma conc.) ([9]; dog, in vivo): 9.3 µM
Dog CV safety: ↓HR (plasma conc.) ([9]; dog, in vivo): 50 µM
IC50 (CpCDPK1): 0.9 nM
Thallium flux IC50 relative to that of BKI-1294 (hERG [4]; higher IC50 than BKI-1294): > 10 fold
Dose at which toxicity was observed [10]: 300 (QD in mice) mg/kg
EC50 (Cryptosporidium parvum [6]): 2500 nM
Cardiovascular effects in calves [11]: have not been detected
IC50 (hERG [12]): ~1000 nM
IC50 (hERG [12]; listed as 1369): 970 nM

CCOc1ccc2cc(-c3nn(C(C)(C)C)c(N)c3C(N)=O)cnc2c1 [BKI-1517]
T. gondii efficacious dose in mice (Toxoplasma gondii [13]; >2 log unit reduction in infection): 60 mg/kg QD
T. gondii efficacious dose in mice (Toxoplasma gondii [13]; ≥2 log reduction in infection): 60 mg/kg QD
C. parvum efficacious dose in mice (Cryptosporidium parvum [2]; BID): 30 mg/kg BID
EC50 (Toxoplasma gondii [3]): 257 nM
IC50 (hERG [4]): > 30000 nM
Fertility (pregnant dams) [14]: 2 of 7
Total pups born [14]: 0
IC50 (Human PKD3): 1110 nM
EC50 (Cryptosporidium parvum [6]): 649 nM
IC50 (hERG [12]): > 16700 nM

CCOc1ccc2cc(-c3nn(C4CCOCC4)c(N)c3C(N)=O)ccc2n1 [BKI-1841]
IC50 (TgCDPK1): 30.1 nM
EC50 (Toxoplasma gondii [3]): 130 nM
IC50 (CpCDPK1): 2.8 nM
EC50 (Cryptosporidium parvum [6]): 1210 nM
